Assay [1] addresses Brachypodium distachyon BdDHS1b, SEQ ID NO: 3, recombinant (Brachypodium distachyon, UniProt I1H4W3). Nature of the assay: DHS activity: kinetics and effector inhibition. In kind it is biochemical. The conditions noted are these: read-out: inhibition at 0.5 mM. The source says: (§1) To examine their functional properties, the recombinant DHS enzymes of Brachypodium were produced and characterized in vitro.
(§2) As recent studies have shown that plant DHS enzymes are feedback-inhibited by multiple effector molecules^15, 16, we tested the effect of AAAs and another 14 related metabolites, including various intermediates of the shikimate pathway and the pathways downstream of AAAs, on Brachypodium DHS enzymes.
(§3) The DHS assay for UHPLC-MS quantification was set up using the same settings as described in the previous paragraph for the UV-based DHS assay, which guaranteed at least 10 minutes of reaction linearity. After a 10-minute incubation, 20 μL of the reactions (out of a total volume of 50 μL) were mixed into 80 μL of methanol, vortexed and transferred to vials for injection. Analysis of DAHP by UHPLC-MS was conducted using the same chromatographic settings as described for the UHPLC-MS analysis of soluble metabolites and compared with an authentic DAHP standard (Sta. Cruz biotechnology, cat. no. sc-216432).

Assay [2] deals with Brachypodium distachyon BdDHS2, SEQ ID NO: 5, recombinant (Brachypodium distachyon, UniProt I1I809). Nature of the assay: DHS activity: kinetics and effector inhibition. It is filed as biochemical. Conditions: read-out: inhibition at 0.5 mM.
Text: as §1, §2, §3

Another assay relates to grass DHS enzymes. Nature of the assay: DHS activity: effector inhibition. In kind it is biochemical. Conditions: 0.5 mM (FIGS. 4, 15, 17). Here is the method: as §2, §3
In assay [3] the target is Brachypodium distachyon BdDHS1a, SEQ ID NO: 1, recombinant (Brachypodium distachyon, UniProt I1GSB3). Nature of the assay: DHS activity: kinetics and effector inhibition. Conditions: read-out: inhibition at 0.5 mM.
Text: as §1, §2, §3

In assay [4] the target is T1, Sorghum bicolor SbTyrAnc (non-canonical TyrA), SEQ ID NO: 43, recombinant (Sorghum bicolor, UniProt C5Z447).
T1 construct: from cDNA
T1 sequence (C5Z447 56-382): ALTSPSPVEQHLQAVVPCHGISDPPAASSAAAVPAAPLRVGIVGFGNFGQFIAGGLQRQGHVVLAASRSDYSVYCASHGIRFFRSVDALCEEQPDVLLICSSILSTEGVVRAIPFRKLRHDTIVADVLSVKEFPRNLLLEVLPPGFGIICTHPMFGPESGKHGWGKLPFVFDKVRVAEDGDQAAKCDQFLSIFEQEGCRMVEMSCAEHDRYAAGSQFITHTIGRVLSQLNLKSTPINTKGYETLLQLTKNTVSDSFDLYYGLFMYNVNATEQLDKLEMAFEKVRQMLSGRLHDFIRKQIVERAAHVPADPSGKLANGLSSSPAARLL
Nature of the assay: TyrA arogenate dehydrogenase kinetics and tyrosine inhibition (340 nm). It is filed as biochemical. The source says: (§4) Next, to study the biochemical properties of grass TyrA enzymes, we generated and characterized recombinant purified TyrA proteins from Brachypodium (BdTyrA) and Sorghum (SbTyrA), two distantly related grass species^43, 44. Whereas TyrA enzymes from dicot plants are generally NADP^+-dependent arogenate dehydrogenases^20, 39, 45, except for NADP^+-prephenate dehydrogenases in the legume family^40, 46, previous reports on the substrate preference of grass TyrA enzymes are inconclusive^17, 19. […] NAD^+-prephenate dehydrogenase activity was absent in all cases, ruling out a significant contamination of the enzyme preparations with the TyrA enzyme from E. coli^47.48.

Assay [5] concerns the target T2, Brachypodium distachyon BdTyrAnc (non-canonical TyrA), SEQ ID NO: 37, recombinant (Brachypodium distachyon, UniProt I1GYB3).
T2 construct: from cDNA
T2 sequence (I1GYB3 58-361): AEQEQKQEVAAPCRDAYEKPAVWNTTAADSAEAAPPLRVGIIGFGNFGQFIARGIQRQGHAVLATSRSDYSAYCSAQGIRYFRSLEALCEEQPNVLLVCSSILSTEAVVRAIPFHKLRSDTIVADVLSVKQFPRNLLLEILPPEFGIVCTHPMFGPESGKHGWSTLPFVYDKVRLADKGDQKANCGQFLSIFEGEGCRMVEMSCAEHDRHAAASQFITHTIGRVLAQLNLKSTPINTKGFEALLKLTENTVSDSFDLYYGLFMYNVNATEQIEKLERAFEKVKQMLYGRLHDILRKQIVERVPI
Described as above. It is filed as biochemical.
Text: as §4

The target in assay [6] is T3, Sorghum bicolor SbTyrA2, SEQ ID NO: 41, recombinant (Sorghum bicolor, UniProt C5Z9D2).
T3 construct: from genomic DNA
T3 sequence (C5Z9D2 53-389): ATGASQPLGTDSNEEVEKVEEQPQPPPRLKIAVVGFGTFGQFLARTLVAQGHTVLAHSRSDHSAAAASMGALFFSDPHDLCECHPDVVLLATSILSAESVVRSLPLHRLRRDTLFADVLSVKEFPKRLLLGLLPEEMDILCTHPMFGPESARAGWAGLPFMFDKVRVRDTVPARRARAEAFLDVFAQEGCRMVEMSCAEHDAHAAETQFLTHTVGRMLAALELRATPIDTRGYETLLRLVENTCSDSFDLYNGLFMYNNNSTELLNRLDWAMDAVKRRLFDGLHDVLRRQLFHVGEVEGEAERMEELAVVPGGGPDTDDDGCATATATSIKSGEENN
Described as above. It is filed as biochemical.
Text: as §4

Assay [7] concerns recombinant Sorghum DHS enzymes. Nature of the assay: DHS activity: effector inhibition. It is filed as biochemical, Sorghum bicolor. The conditions noted are these: 0.5 mM (FIG. 17). Here is the method: In contrast, BdDHS1b was not inhibited by arogenate even up to 2.5 mM. In fact, DHS1b activity increased in the presence of high concentrations of arogenate (FIG. 4F), likely due to high concentrations of contaminant NaCl present in the arogenate preparation (FIG. 16). Under acidic conditions, arogenate is known to undergo a spontaneous dehydration and decarboxylation into […]. […] Like in Brachypodium DHS enzymes, 0.5 mM arogenate inhibited SbDHS1a and SbDHS2 at ˜50% and ˜40%, respectively, but had no effect on SbDHS1b.

Sequence of Brachypodium distachyon BdDHS1b, SEQ ID NO: 3, recombinant (I1H4W3 37-542): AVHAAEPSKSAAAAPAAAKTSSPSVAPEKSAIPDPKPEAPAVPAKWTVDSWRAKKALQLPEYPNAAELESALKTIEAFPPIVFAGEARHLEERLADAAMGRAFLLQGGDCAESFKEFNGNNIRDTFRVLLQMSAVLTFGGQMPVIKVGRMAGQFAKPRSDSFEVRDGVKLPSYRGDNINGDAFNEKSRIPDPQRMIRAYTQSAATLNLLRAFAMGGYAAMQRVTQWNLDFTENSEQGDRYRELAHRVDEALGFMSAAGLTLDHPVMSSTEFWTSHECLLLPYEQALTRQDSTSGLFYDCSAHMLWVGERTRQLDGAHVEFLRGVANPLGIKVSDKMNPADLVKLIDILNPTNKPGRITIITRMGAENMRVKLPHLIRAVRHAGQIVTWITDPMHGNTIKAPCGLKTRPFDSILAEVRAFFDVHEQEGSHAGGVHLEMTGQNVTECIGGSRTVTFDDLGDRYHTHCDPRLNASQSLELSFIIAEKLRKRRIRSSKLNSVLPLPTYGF
Sequence of Brachypodium distachyon BdDHS1a, SEQ ID NO: 1, recombinant (I1GSB3 46-537): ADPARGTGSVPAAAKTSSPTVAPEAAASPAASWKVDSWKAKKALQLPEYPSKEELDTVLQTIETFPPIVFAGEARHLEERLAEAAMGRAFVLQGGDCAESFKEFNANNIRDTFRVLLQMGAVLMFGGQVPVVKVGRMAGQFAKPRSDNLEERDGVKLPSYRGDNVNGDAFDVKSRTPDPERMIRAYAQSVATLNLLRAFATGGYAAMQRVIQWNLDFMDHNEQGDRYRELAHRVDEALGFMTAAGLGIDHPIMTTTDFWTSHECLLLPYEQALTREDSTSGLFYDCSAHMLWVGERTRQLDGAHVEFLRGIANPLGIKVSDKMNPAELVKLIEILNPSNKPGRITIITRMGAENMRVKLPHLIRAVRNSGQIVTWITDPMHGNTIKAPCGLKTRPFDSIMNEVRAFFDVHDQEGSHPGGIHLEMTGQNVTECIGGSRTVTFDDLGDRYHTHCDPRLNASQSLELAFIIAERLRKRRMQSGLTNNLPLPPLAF
Sequence of Brachypodium distachyon BdDHS2, SEQ ID NO: 5, recombinant (I1I809 31-503): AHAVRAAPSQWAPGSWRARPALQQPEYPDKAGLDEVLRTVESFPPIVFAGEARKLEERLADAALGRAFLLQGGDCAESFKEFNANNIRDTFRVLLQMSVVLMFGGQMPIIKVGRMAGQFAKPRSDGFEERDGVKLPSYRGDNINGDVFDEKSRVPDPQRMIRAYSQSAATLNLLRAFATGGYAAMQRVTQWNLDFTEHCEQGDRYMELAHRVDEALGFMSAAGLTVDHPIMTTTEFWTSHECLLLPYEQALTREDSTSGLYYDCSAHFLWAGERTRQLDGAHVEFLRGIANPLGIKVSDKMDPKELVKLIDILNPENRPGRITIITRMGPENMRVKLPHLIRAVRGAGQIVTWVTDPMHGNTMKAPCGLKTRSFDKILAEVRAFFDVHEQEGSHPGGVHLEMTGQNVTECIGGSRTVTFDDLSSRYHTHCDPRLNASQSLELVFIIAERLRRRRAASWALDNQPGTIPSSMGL

As to `N[C@@H](Cc1ccc(O)cc1)C(=O)O` [tyrosine], the inhibition at 500 µM in assay [1] was around 10%; in assay [2] it was around 10%; in assay [3] it was around 25%. For the same molecule, the “effect on grass DHS at 0.5 mM” value in the assay on grass DHS enzymes is listed as “little effect”. Also, the IC50 was found to be 406 ± 85 µM in assay [4]; 242 ± 45 µM in assay [5] (IC50 (tyrosine), 0.5 mM arogenate, 1 mM NADP^+); 47 ± 23 µM in assay [6]. The inhibition constant (Ki) in assay [4] was 137 ± 44 µM; in assay [5] (calculated from Km and IC50, competitive inhibition model), 64 ± 25 µM; in assay [6] it was 36 ± 13 µM. Also, the activity at 200 µM in assay [5] (read-out: activity retained at 200 μM of tyrosine) is above 50%. Besides, the “mode of inhibition by tyrosine” value in assay [5] (with respect to arogenate) was “competitive with arogenate”. Also, the “inhibition at 0.5 mM” value in assay [7] was “no strong inhibition”.

In general, inhibition refers to the change of the read-out against control, counted positive when it falls. In general, IC50 refers to the concentration that gives 50% inhibition. The term Ki denotes the equilibrium dissociation constant of an inhibitor or competing ligand from its target.

(Values after patent US20250115926A1, “DEREGULATED DHS AND TYRA ENZYMES OF GRASSES ENABLE EFFICIENT PRODUCTION OF BOTH TYROSINE AND PHENYLALANINE” (Wisconsin Alumni Research Foundation, priority 2023, published 2025).)
